Experimental data reported in DBAASP.
Converted amounts (≈) assume the structure as drawn. One block for each compound: values may come before it.

Key:
Assay in all cases: ≥ marks a high value that may be exact or a test limit, other limits are often not marked, values filed in µg/mL are converted to µM
[1] = test system: Pseudomonas aeruginosa 4891
[2] = test system: Pseudomonas aeruginosa 4007
[3] = test system: Escherichia coli CCARM 1229
[4] = test system: Trichosporon beigelii KCTC 7707
[5] = test system: Escherichia coli CCARM 1238
[6] = test system: Staphylococcus aureus CCARM 3518
[7] = test system: Staphylococcus aureus CCARM 3090
[8] = test system: Candida albicans KCTC 7270
[9] = test system: Enterococcus faecalis KCCM 29212
[10] = test system: Salmonella typhimurium KCTC 1926
[11] = test system: Bacillus subtilis KCTC 3068
[12] = test system: Enterococcus faecalis ATCC 51575
[13] = test system: Escherichia coli KCTC 1682
[14] = test system: Staphylococcus aureus KCTC 1621
[15] = test system: Staphylococcus aureus KCCM 40510
[16] = test system: Enterococcus faecium KCCM 12118
[17] = test system: Pseudomonas aeruginosa KCTC 1637
[18] = test system: Enterococcus faecium ATCC 51559
[19] = test system: Staphylococcus epidermidis KCTC 1917
[20] = test system: Candida krusei ATCC 6258
[21] = test system: Candida tropicalis ATCC 20240
[22] = test system: Candida albicans ATCC 2048
[23] = test system: Candida glabrata ATCC 90525
[24] = test system: Candida parapsilosis ATCC 20224
[25] = test system: Edwardsiella tarda DMST 38217
[26] = test system: Pseudomonas aeruginosa TISTR 1287
[27] = test system: Enterococcus faecalis TISTR 927
[28] = test system: Escherichia coli ATCC 25922
[29] = test system: Aeromonas hydrophila TISTR 1321
[30] = test system: Escherichia coli DH5alpha
[31] = test system: Salmonella typhimurium TISTR 1472
[32] = test system: Bacillus cereus TISTR 1449
[33] = test system: Candida albicans TISTR 5554
[34] = test system: Bacillus megaterium TISTR 067
[35] = test system: Staphylococcus aureus ATCC 25923
[36] = test system: Salmonella enterica subsp. enterica serovar Derby DMST 16881
[37] = test system: Staphylococcus aureus TISTR 746
[38] = test system: Bacillus subtilis TISTR 1248
[39] = test system: Staphylococcus aureus ATCC 6538P
[40] = test system: Bacillus megaterium Bm11
[41] = test system: Enterococcus faecalis ATCC 19433
[42] = test system: Klebsiella aerogenes ATCC 35029
[43] = test system: Pseudomonas aeruginosa ATCC 27853
[44] = test system: Enterobacter cloacae ATCC 49141
[45] = test system: Streptococcus pyogenes ATCC 49399
[46] = test system: Pseudomonas aeruginosa PA14
[47] = test system: Enterobacter cloacae beta-12
[48] = test system: Escherichia coli SBS 363
[49] = test system: Escherichia coli D31

SMILES: CC[C@H](C)[C@H](NC(=O)[C@H](C)NC(=O)[C@H](CCC(=O)O)NC(=O)[C@H](Cc1cnc[nH]1)NC(=O)[C@@H](NC(=O)[C@H](CCCCN)NC(=O)[C@H](CCC(N)=O)NC(=O)[C@H](Cc1ccccc1)NC(=O)[C@@H](NC(=O)[C@H](CCCCN)NC(=O)[C@H](CCCCN)NC(=O)[C@H](CC(C)C)NC(=O)[C@H](C)NC(=O)[C@H](CC(N)=O)NC(=O)[C@H](CC(C)C)NC(=O)CN)C(C)C)[C@@H](C)CC)C(=O)N[C@@H](CCCCN)C(=O)N[C@@H](CCCCN)C(=O)N[C@H](C(=O)N[C@@H](CC(N)=O)C(=O)N[C@@H](CC(N)=O)C(=O)N[C@@H](Cc1cnc[nH]1)C(=O)N[C@H](C(=O)N[C@@H](CCC(N)=O)C(N)=O)C(C)C)[C@@H](C)CC [GLNALKKVFQKIHEAIKKINNHVQ]
MIC [1]: 4 µM (≈ 11.1 µg/mL)
MIC [2]: 2 µM (≈ 5.54 µg/mL)
MIC [3]: 4 µM (≈ 11.1 µg/mL)
MIC [4]: ≥ 32 µM
MIC [5]: 4 µM (≈ 11.1 µg/mL)
MIC [6]: 4 µM (≈ 11.1 µg/mL)
MIC [7]: 8 µM (≈ 22.2 µg/mL)
MIC [8]: ≥ 32 µM

SMILES: CC[C@H](C)[C@H](NC(=O)[C@H](CC(C)C)NC(=O)[C@H](CC(C)C)NC(=O)[C@@H](N)CC(C)C)C(=O)N[C@@H](C)C(=O)N[C@@H](CC(C)C)C(=O)N[C@@H](CCCN=C(N)N)C(=O)N[C@@H](CCCCN)C(=O)N[C@@H](CCCCN)C(N)=O [LLLIALRKK]
MIC [9]: 3.75 µM (≈ 4 µg/mL)
MIC [10]: 1.87 µM (≈ 2 µg/mL)
MIC [11]: 3.75 µM (≈ 4 µg/mL)
MIC [12]: 7.49 µM (≈ 7.99 µg/mL)
MIC [13]: 3.75 µM (≈ 4 µg/mL)
MIC [14]: 3.75 µM (≈ 4 µg/mL)
MIC [15]: 3.75 µM (≈ 4 µg/mL)
MIC [16]: 3.75 µM (≈ 4 µg/mL)
MIC [17]: 3.75 µM (≈ 4 µg/mL)
MIC [18]: 1.87 µM (≈ 2 µg/mL)
MIC [19]: 1.87 µM (≈ 2 µg/mL)

SMILES: CC(C)C[C@H](NC(=O)[C@H](C)NC(=O)[C@H](CC(C)C)NC(=O)[C@H](CC(=O)O)NC(=O)[C@H](CCC(N)=O)NC(=O)[C@@H](N)CC(C)C)C(=O)N[C@@H](CCC(N)=O)C(=O)NCC(=O)N[C@@H](C)C(=O)N[C@@H](CCCCN)C(=O)N[C@@H](CCC(=O)O)C(=O)N[C@@H](CCCN=C(N)N)C(=O)N[C@@H](C)C(=O)N[C@@H](Cc1cnc[nH]1)C(=O)N[C@@H](CCC(N)=O)C(=O)N[C@@H](CCC(N)=O)C(=O)O [LQDLALQGAKERAHQQ]
MIC [20]: ≥ 380 µM
MIC [21]: ≥ 410 µM
MIC [22]: ≥ 380 µM
MIC [23]: ≥ 280 µM
MIC [24]: ≥ 320 µM

SMILES: CC[C@H](C)[C@H](NC(=O)[C@H](Cc1c[nH]c2ccccc12)NC(=O)[C@H](Cc1ccccc1)NC(=O)[C@@H]1CCCN1C(=O)[C@H](CCCN=C(N)N)NC(=O)[C@@H](N)CCCN=C(N)N)C(=O)N[C@H](C(=O)N[C@@H](CCCN=C(N)N)C(=O)N[C@@H](CCCN=C(N)N)C(N)=O)[C@@H](C)CC [RRPFWIIRR]
MIC [39]: ≥ 80 µM
MIC [40]: 1.25 µM (≈ 1.62 µg/mL)
MIC [41]: ≥ 80 µM
MIC [28]: 80 µM (≈ 104 µg/mL)
MIC [42]: ≥ 80 µM
MIC [43]: > 80 µM
MIC [44]: ≥ 80 µM
MIC [45]: 10 µM (≈ 13 µg/mL)

Second part, the compound after the results:

MIC [25]: ≥ 225 µM
MIC [26]: ≥ 225 µM
MIC [27]: ≥ 56.2 µM
MIC [28]: 112 µM (≈ 200 µg/mL)
MIC [29]: ≥ 225 µM
MIC [30]: ≥ 112 µM
MIC [31]: ≥ 225 µM
MIC [32]: ≥ 225 µM
MIC [33]: ≥ 225 µM
MIC [34]: 7.03 µM (≈ 12.5 µg/mL)
MIC [35]: 225 µM (≈ 400 µg/mL)
MIC [36]: ≥ 225 µM
MIC [37]: ≥ 225 µM
MIC [38]: 14.1 µM (≈ 25 µg/mL)
SMILES: CC(C)C[C@H](NC(=O)[C@H](CCCCN)NC(=O)[C@@H](NC(=O)[C@H](CO)NC(=O)[C@H](Cc1ccccc1)NC(=O)[C@H](CC(C)C)NC(=O)[C@H](Cc1c[nH]c2ccccc12)NC(=O)[C@@H](NC(=O)[C@H](CS)NC(=O)[C@H](CC(N)=O)NC(=O)[C@@H](N)CCCN=C(N)N)[C@@H](C)O)[C@@H](C)O)C(=O)N[C@@H](CCCCN)C(=O)N[C@@H](CC(C)C)C(=O)N1CCC[C@H]1C(=O)N[C@@H](C)C(=O)O [RNCTWLFSTKLKLPA]

MIC [46]: 4.6 µM (≈ 7.81 µg/mL)
MIC [47]: 2.3 µM (≈ 3.9 µg/mL)
MIC [48]: 4.6 µM (≈ 7.81 µg/mL)
MIC [43]: 1.15 µM (≈ 1.95 µg/mL)
MIC [49]: 4.6 µM (≈ 7.81 µg/mL)
SMILES: CC[C@H](C)[C@H](NC(=O)[C@H](CC(=O)O)NC(=O)[C@H](CC(=O)O)NC(=O)[C@H](CC(N)=O)NC(=O)CNC(=O)[C@H](CO)NC(=O)[C@H](Cc1ccccc1)NC(=O)[C@H](CC(=O)O)NC(=O)[C@@H](NC(=O)CNC(=O)[C@@H](N)C(C)C)[C@@H](C)O)C(=O)N[C@@H](CO)C(=O)N[C@@H](CC(=O)O)C(=O)N[C@H](C(=O)N[C@@H](CCC(N)=O)C(=O)N[C@@H](CCCCN)C(=O)O)C(C)C [VGTDFSGNDDISDVQK]
